Source: ChEMBL document CHEMBL6120974, “Hydrazide-Based Class I Selective HDAC Inhibitors Completely Reverse Chemoresistance Synergistically in Platinum-Resistant Solid Cancer Cells” (J Med Chem, 2024)
Active and inactive are the calls of the source. The calls are words filed in the database; no cut-off is given here.

Legend:
A2780 [1] = assay: Induction of apoptosis in human A2780 cells assessed as decrease in Bcl-2 protein level at 0.75 uM in presence of cisplatin at 3.5 uM preincubated with compound for 48 hrs prior to addition of cisplatin and measured after 24 hrs by Immunoblotting analysis; type: functional, cell-based; settings: time 72.0 hrs
Cal27CisR [2] = assay: Induction of apoptosis in human Cal27CisR cells assessed as increase in BIM expression at 0.316 uM incubated for 48 hrs by Immunoblotting analysis; type: functional, cell-based
Histone deacetylase 4 = Histone deacetylase 4 (Homo sapiens, UniProt P56524); assay: Inhibition of recombinant HDAC4 (unknown origin) using Bos-Lys(TFA)-AMC as substrate preincubated with compound for 5 mins and measured after 90 mins by NOVOstar microplate reader analysis
Cal27CisR [3] = assay: Downregulation of survivin expression in cisplatin resistant human Cal27CisR cells at 0.316 uM in presence of cisplatin at 16.5 uM preincubated with compound for 48 hrs prior to addition of cisplatin and measured after 24 hrs by Immunoblotting analysis; type: functional, cell-based; settings: time 72.0 hrs
CAL-27 [4] = assay: Downregulation of survivin expression in human CAL-27 cells at 0.316 uM in presence of cisplatin at 3 uM preincubated with compound for 48 hrs prior to addition of cisplatin and measured after 24 hrs by Immunoblotting analysis; type: functional, cell-based; settings: time 72.0 hrs
A2780 [5] = assay: Downregulation of BAX expression in human A2780 cells at 0.75 uM incubated for 48 hrs by Immunoblotting analysis; type: functional, cell-based
A2780cisR [6] = assay: Induction of apoptosis in cisplatin resistant human A2780 cisR cells assessed as increase in BIM expression at 2 uM incubated for 48 hrs by Immunoblotting analysis; type: functional, cell-based
CAL-27 [7] = assay: Induction of cell cycle arrest in human CAL-27 cells assessed as increase in p21 expression at 0.316 uM incubated for 48 hrs by Western blotting analysis; type: functional, cell-based
A2780 [8] = assay: Downregulation of survivin expression in human A2780 cells at 0.75 uM in presence of cisplatin at 3.5 uM preincubated with compound for 48 hrs prior to addition of cisplatin and measured after 24 hrs by Immunoblotting analysis; type: functional, cell-based; settings: time 72.0 hrs
A2780 [9] = assay: cells; settings: Homo sapiens, A2780, 72 h
A2780cisR [10] = assay: Induction of apoptosis in cisplatin resistant human A2780 cisR cells assessed as caspase-3/7 activation at 2 uM incubated for 48 hrs by capase3/7 green dye based analysis; type: functional, cell-based
A2780cisR [11] = assay: Induction of apoptosis in cisplatin resistant human A2780 cisR cells assessed as increase in apoptotic nuclei at sub-G1 phase at 2 uM incubated for 48 hrs by flow cytometric analysis; type: functional, cell-based
Cal27CisR [12] = assay: Induction of apoptosis in cisplatin resistant human Cal27CisR cells assessed as apoptotic nuclei at sub-G1 phase at 0.316 uM incubated for 48 hrs by flow cytometric analysis; type: functional, cell-based
CAL-27 [13] = assay: Induction of apoptosis in human CAL-27 cells assessed as apoptotic nuclei at sub-G1 phase at 0.316 uM incubated for 48 hrs by flow cytometric analysis; type: functional, cell-based
Cal27CisR [14] = assay: Induction of DNA damage in cisplatin resistant human Cal27CisR cells assessed as increase in gammaH2AX formation at 0.316 uM in presence of cisplatin at 16.5 uM pretreated with compound for 48 hrs prior to addition of cisplatin and measured after 24 hrs by Hoechst 33342 staining based Immunofluorescence analysis; type: functional, cell-based; settings: time 72.0 hrs
A2780cisR [15] = assay: Induction of apoptosis in cisplatin resistant human A2780 cisR cells assessed as increase in Bcl-2 protein level at 2 uM in presence of cisplatin at 16 uM preincubated with compound for 48 hrs prior to addition of cisplatin and measured after 24 hrs by Immunoblotting analysis; type: functional, cell-based; settings: time 72.0 hrs
A2780 [16] = assay: Induction of apoptosis in human A2780 cells assessed as increase in BIM expression at 0.75 uM in presence of cisplatin at 3.5 uM preincubated with compound for 48 hrs prior to addition of cisplatin and measured after 24 hrs by Immunoblotting analysis; type: functional, cell-based; settings: time 72.0 hrs
A2780 [17] = assay: Induction of apoptosis in human A2780 cells assessed as increase in BIM expression at 0.75 uM incubated for 48 hrs by Immunoblotting analysis; type: functional, cell-based
CAL-27 [18] = assay: Induction of apoptosis in human CAL-27 cells assessed as increase in Bcl-2 protein level at 0.316 uM incubated for 48 hrs by Immunoblotting analysis; type: functional, cell-based
Cal27CisR [19] = assay: Induction of apoptosis in cisplatin resistant human Cal27CisR cells assessed as increase in caspase 3/7 activation at 0.316 uM in presence of cisplatin preincubated with compound for 48 hrs co-treated with cisplatin and measured after 24 hrs by capase3/7 green dye based analysis; type: functional, cell-based; settings: time 72.0 hrs
Cal27CisR [20] = assay: Downregulation of survivin expression in cisplatin resistant human Cal27CisR cells at 0.316 uM incubated for 48 hrs by Immunoblotting analysis; type: functional, cell-based
A2780 [21] = assay: Induction of DNA damage in human A2780 cells assessed as increase in gammaH2AX formation at 0.75 uM in presence of cisplatin at 3.5 uM pretreated with compound for 48 hrs prior to addition of cisplatin and measured after 24 hrs by Hoechst 33342 staining based Immunofluorescence analysis; type: functional, cell-based; settings: time 72.0 hrs
A2780 [22] = assay: Induction of apoptosis in human A2780 cells assessed as increase in apoptotic nuclei at sub-G1 phase at 2 uM in presence of cisplatin at 16 uM preincubated with compound for 48 hrs prior to addition of cisplatin and measured after 24 hrs by flow cytometric analysis; type: functional, cell-based; settings: time 72.0 hrs
cells [23] = settings: Homo sapiens, A2780cisR
MV4-11 = assay: cells; settings: Homo sapiens, MV4-11, 72 h
A2780cisR [24] = assay: Induction of cell cycle arrest in cisplatin resistant human A2780 cells assessed as increase in p21 expression at 2 uM incubated for 48 hrs by Western blotting analysis; type: functional, cell-based
A2780cisR [25] = assay: Effect on survivin expression in human cisplatin resistant human A2780 cisR cells at 2 uM incubated for 48 hrs by Immunoblotting analysis; type: functional, cell-based
Cal27CisR [26] = assay: Induction of apoptosis in cisplatin resistant human Cal27CisR cells assessed as increase in Bcl-2 protein level at 0.316 uM in presence of cisplatin at 16.5 uM preincubated with compound for 48 hrs prior to addition of cisplatin and measured after 24 hrs by Immunoblotting analysis; type: functional, cell-based; settings: time 72.0 hrs
CAL-27 [27] = assay: Downregulation of BAX expression in human CAL-27 cells at 0.316 uM incubated for 48 hrs by Immunoblotting analysis; type: functional, cell-based
A2780 [28] = assay: Induction of apoptosis in human A2780 cells assessed as decrease in Bcl-2 protein level at 0.75 uM incubated for 48 hrs by Immunoblotting analysis; type: functional, cell-based
Cal27CisR [29] = assay: Induction of cell cycle arrest in cisplatin resistant human Cal27CisR cells assessed as increase in p21 expression at 0.316 uM incubated for 48 hrs by Western blotting analysis; type: functional, cell-based
A2780cisR [30] = assay: Induction of apoptosis in cisplatin resistant human A2780 cisR cells assessed as decrease in Bcl-2 protein level at 2 uM incubated for 48 hrs by Immunoblotting analysis; type: functional, cell-based
A2780cisR [31] = assay: cells; settings: Homo sapiens, 72 h
CAL-27 [32] = assay: Induction of apoptosis in human CAL-27 cells assessed as increase in BIM expression at 0.316 uM incubated for 48 hrs by Immunoblotting analysis; type: functional, cell-based
cells [33] = settings: Homo sapiens, CAL-27

Histone deacetylase 4, sequence (P56524 whole entry): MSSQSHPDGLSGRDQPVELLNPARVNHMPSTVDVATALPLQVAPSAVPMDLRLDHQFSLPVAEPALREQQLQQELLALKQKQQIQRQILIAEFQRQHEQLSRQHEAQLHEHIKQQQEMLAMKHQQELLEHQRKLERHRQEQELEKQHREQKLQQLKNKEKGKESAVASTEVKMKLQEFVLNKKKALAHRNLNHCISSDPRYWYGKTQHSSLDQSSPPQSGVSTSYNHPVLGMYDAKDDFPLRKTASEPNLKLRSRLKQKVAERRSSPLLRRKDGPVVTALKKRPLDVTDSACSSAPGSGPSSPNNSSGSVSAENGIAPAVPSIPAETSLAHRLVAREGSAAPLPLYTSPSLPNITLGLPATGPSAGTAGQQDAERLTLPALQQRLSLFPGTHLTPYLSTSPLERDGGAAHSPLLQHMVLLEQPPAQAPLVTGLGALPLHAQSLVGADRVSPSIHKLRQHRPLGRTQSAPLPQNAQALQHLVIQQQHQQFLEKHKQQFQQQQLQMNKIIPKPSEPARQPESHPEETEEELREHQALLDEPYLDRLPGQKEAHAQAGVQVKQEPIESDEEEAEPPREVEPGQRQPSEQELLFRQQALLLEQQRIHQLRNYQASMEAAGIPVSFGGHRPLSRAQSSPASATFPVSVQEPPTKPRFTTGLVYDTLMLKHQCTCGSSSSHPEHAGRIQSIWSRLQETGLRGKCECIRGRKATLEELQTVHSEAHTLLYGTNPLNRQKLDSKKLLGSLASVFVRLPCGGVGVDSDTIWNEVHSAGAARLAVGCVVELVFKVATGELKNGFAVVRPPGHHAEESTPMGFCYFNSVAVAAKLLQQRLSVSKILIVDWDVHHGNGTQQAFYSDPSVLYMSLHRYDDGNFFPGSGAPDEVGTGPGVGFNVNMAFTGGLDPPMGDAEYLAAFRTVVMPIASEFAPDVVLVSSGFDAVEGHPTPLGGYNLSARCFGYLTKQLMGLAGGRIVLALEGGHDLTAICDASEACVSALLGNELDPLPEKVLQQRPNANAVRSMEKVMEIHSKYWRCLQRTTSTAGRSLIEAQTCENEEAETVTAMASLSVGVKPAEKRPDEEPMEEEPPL

| IC50 (Histone deacetylase 4) [nM] | IC50 (A2780 [9]) [nM] | Structure (SMILES) | Activity (A2780 [1]) | Activity (Cal27CisR [2]) | Activity (Cal27CisR [3]) | Activity (CAL-27 [4]) | Activity (A2780 [5]) | Activity (A2780cisR [6]) | Activity (CAL-27 [7]) | Activity (A2780 [8]) | Activity (A2780cisR [10]) | Activity (A2780cisR [11]) | Activity (Cal27CisR [12]) | Activity (CAL-27 [13]) | Activity (Cal27CisR [14]) | Activity (A2780cisR [15]) | Activity (A2780 [16]) | Activity (A2780 [17]) | Activity (CAL-27 [18]) | Activity (Cal27CisR [19]) | other results |
| --- | --- | --- | --- | --- | --- | --- | --- | --- | --- | --- | --- | --- | --- | --- | --- | --- | --- | --- | --- | --- | --- |
| > 10000 | 1130 | CCCNNC(=O)c1ccc(CN(CC(=O)NCc2ccccc2)C(=O)c2ccc(N(C)C)cc2)cc1 | Active | Active | Active | Active | Active | Active | Active | Active | Active; Remarkable Activation Observed | Active | Active; Moderate Percentage Of Apoptotic Nuclei Observed | Active; Moderate Percentage Of Apoptotic Nuclei Observed | Active | Active | inactive | inactive | Not active; Slight Increase Observed | Active | Activity (Cal27CisR [20]): Active; Activity (A2780 [21]): inactive; Activity (A2780 [22]): inactive; IC50 (cells [23]): 12500 nM; IC50 (MV4-11): 194 nM; Activity (A2780cisR [24]): Active; Activity (A2780cisR [25]): inactive; Activity (Cal27CisR [26]): Not active; Slight Increase Observed; Activity (CAL-27 [27]): Active; Activity (A2780 [28]): Active; Activity (Cal27CisR [29]): Active; Activity (A2780cisR [30]): Active; IC50 (A2780cisR [31]): 2460 nM; Activity (CAL-27 [32]): Active; IC50 (cells [33]): 151 nM |
| > 10000 | 894 | CCCCNNC(=O)c1ccc(CN(CC(=O)NCc2ccccc2)C(=O)c2ccc(N(C)C)cc2)cc1 | Active | Active | Active | Active | Active | Active | Active | Active | Active; Remarkable Activation Observed | Active | Active; Moderate Percentage Of Apoptotic Nuclei Observed | Active; Moderate Percentage Of Apoptotic Nuclei Observed | Active | Active | inactive | inactive | Not active; Slight Increase Observed | Active | Activity (Cal27CisR [20]): Active; Activity (A2780 [21]): inactive; Activity (A2780 [22]): inactive; IC50 (cells [23]): 11000 nM; IC50 (MV4-11): 212 nM; Activity (A2780cisR [24]): Active; Activity (A2780cisR [25]): inactive; Activity (Cal27CisR [26]): Not active; Slight Increase Observed; Activity (CAL-27 [27]): Active; Activity (A2780 [28]): Active; Activity (Cal27CisR [29]): Active; Activity (A2780cisR [30]): Active; IC50 (A2780cisR [31]): 2690 nM; Activity (CAL-27 [32]): Active; IC50 (cells [33]): 166 nM |
